The results in this text go back to patent publication US20230312752A1 (Brown University, priority 2021, published 2023).

What all share (format): cell-based, SARS-CoV-2
The test system of assay [1] is pseudovirus with alpha, beta or gamma S protein mutations.
The subject of assay [2] is pseudovirus with Delta S protein mutations.
Assay [3] relates to pseudoviruses with omicron S protein mutations.
Assay [4] has as its system pseudovirus with S protein D614G, E484K, UK, SA, BZ variants.

`C[C@H]1O[C@H](O[C@H]2[C@H](O)[C@@H](O)[C@@H](O)[C@H](O)[C@@H]2O)[C@@H](N)C[C@@H]1NC(=N)C(=O)O` [Kasugamycin, 2-amino-2-[(2R,3S,5S,6R)-5-amino-2-methyl-6-[(2R,3S,5S,6S)-2,3,4,5,6-pentahydroxycyclohexyl]oxyoxan-3-yl]iminoacetic acid]: in assay [1], the “rCHI3L1 stimulatory effects on pseudovirus uptake” value is recorded as “markedly decreased”; the “uptake of pseudovirus in cells treated with and without rCHI3L1” value is reported as “markedly diminished”. For the same molecule, in assay [2], the CHI3L1-stimulated pseudovirus uptake entry was “abrogated” and the “pseudovirus uptake when exogenous CHI3L1 was not administered” value was “diminished”. The “epithelial cell uptake of pseudoviruses” value in assay [3] is listed as “inhibited”.

Turning to “rhCHI3L1: recombinant human CHI3L1 (chitinase 3 like 1) protein, from R&D Inc. or generated at Brown University”, the “cellular integration of Spike proteins” value in assay [4] is recorded as “stimulated”. The uptake of pseudovirus result in assay [2] is listed as “potent stimulator”. Besides, the uptake of pseudoviruses result in assay [3] is on record as “potent stimulator”.

B1: FRG: murine monoclonal anti-CHI3L1 antibody raised against amino acid 223-234 of human CHI3L1; heavy chain SEQ ID NO: 13, light chain SEQ ID NO: 14 (antibody, V domains shown)
VH: QIQLVQSGPELKKPGETVKISCKASGYTFTNYGMNWVKQAPGKGLKWMGWINTYTGEPTYADDFKGRFAFSLETSASTAYLQINNLRNEDMSTYFCARLGYGKFYVMDYWGQGTSVTVSS
VL: DVVMTQTPLSLPVSLGDQASISCRSSQSLVHSNGNTYLHWYLQKPGQSPKLLIYKVSNRFSGVPDRFSGSGSGTDFTLKISRVEAEDLGVYFCSQSTHVTWTFGGGTKLEIK
With B1, in assay [1], the “uptake of pseudovirus in cells treated with and without rCHI3L1” value is given as “markedly diminished”; the “uptake of pseudoviruses in cells treated with and without rCHI3L1” value is “markedly diminished”. Further, in assay [2], the CHI3L1-stimulated pseudovirus uptake entry was “abrogated” and the “pseudovirus uptake when exogenous CHI3L1 was not administered” value is “diminished”. Besides, the “epithelial cell uptake of pseudoviruses” value in assay [3] is on record as “inhibited”.
